pIC50: −log10 of the molar value.
Each molecule was assayed against Serine/threonine-protein kinase SIK2 (Homo sapiens, UniProt Q9H0K1) (assay: Caliper-based Mobility Shift Assay). Conditions: pH 8.
Description: IC50‘s for HG-9-91-01 derivatives were measured by Caliper-based mobility shift assay (PerkinElmer). […] Reactions were quenched by adding 20 mM EDTA (pH 8) after 1 hr, and percentage of substrate conversion was measured by LabChip EZ Reader II (PerkinElmer).

Chain of Serine/threonine-protein kinase SIK2 (Q9H0K1 whole entry): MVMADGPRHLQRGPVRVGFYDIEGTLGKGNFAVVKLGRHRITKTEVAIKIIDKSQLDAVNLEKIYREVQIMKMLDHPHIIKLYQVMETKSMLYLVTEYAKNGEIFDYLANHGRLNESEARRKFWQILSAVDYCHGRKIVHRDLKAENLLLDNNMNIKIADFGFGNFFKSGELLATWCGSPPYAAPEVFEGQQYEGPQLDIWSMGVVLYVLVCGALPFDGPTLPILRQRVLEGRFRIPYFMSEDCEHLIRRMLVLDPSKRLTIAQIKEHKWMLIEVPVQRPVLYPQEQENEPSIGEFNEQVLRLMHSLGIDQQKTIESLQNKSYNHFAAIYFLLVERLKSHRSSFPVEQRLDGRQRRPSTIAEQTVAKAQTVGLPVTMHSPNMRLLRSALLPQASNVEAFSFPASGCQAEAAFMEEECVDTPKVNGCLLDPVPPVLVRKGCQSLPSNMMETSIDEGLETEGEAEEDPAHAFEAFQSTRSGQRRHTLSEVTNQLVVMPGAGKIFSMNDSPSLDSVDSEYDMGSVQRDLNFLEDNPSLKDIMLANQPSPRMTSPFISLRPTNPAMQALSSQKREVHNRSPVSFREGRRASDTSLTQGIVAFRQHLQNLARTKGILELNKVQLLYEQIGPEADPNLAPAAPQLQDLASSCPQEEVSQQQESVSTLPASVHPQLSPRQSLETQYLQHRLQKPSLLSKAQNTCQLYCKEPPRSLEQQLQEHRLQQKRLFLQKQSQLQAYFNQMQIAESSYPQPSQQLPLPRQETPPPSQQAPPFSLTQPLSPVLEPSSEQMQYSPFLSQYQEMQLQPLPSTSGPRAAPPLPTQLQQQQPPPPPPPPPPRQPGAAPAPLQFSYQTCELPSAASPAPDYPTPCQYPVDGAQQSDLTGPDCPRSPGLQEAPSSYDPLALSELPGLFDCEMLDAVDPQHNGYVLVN

pIC50	SMILES
6.82	CCOc1cc(C2CCN(C)CC2)ccc1Nc1ncc2c(n1)N(c1ccc(OC)cn1)C(=O)N(c1c(C)cccc1Cl)C2 [HG-9-91-01 derivative, 6]
< 5.15	COc1ccc(N2C(=O)N(c3c(C)cccc3C)Cc3cnc(Nc4ccc(C5CCN(C)CC5)cc4OC(C)C)nc32)nc1 [HG-9-91-01 derivative, 7]
8.22	COc1ccc(N2C(=O)N(c3c(C)cccc3Cl)Cc3cnc(Nc4ccc(N5CCN(C)CC5)cc4)nc32)nc1 [YKL-05-095 (3)]
7.47	COc1ccc(N2C(=O)N(c3c(C)cccc3Cl)Cc3cnc(Nc4ccc(N5CCN(C)CC5)cc4OC)nc32)nc1 [YKL-05-096 (4)]

Reference: BindingDB's records for doi:10.1021/acschembio.6b00217 (Broad Institute, 2016)
